Values quoted from earlier work, collected in patent publication US7959936B2, “Emulsifications-stable pesticidal composition” (Syngenta Crop Protection, Inc., priority 2003, dated 2011).
Like-named read-outs stand apart in the source and are kept apart here.

Key:
[1] = 25° C
[2] = tested on: Mouse
[3] = tested on: Rat
[4] = tested on: Rabbit
[5] = tested on: Rabbit; conditions: no unit printed for this line
[6] = tested on: Rabbit; remark: listed apart in the source
[7] = tested on: Rabbit; remark: listed apart in the source
[8] = tested on: Guinea pig
[9] = tested on: Quail
[10] = tested on: Mallard duck
[11] = tested on: Bluegill
[12] = tested on: Rainbow trout

2-(thiazol-4-ine)benzimidazole [Thiabendazole]
Solubility, 1,2-dichloroethane (20° C.): 810 µg/mL | Solubility, Acetone (20° C.): 2430 µg/mL | Solubility, Ethyl acetate (20° C.): 1490 µg/mL | Solubility, Methanol (20° C.): 8280 µg/mL | Solubility, Xylene (20° C.): 130 µg/mL | Solubility, n-Hexane (20° C.): <10 µg/mL | Solubility, n-Octanol (20° C.): 3910 µg/mL | Solubility, Water (20° C., pH4): 160 µg/mL | Solubility, Water (20° C., pH7): 30 µg/mL | solubility in short-chain alcohols (such as methyl alcohol): comparatively satisfactory solubility | solubility in water (water): practically insoluble | solubility in typical industrial solvents (xylene and petroleum-based solvents): only slightly soluble | Vapor pressure [1]: Vapor pressure: 4.6 × 10^−4 mPa (25° C) | Acute oral toxicity (LD50: mg/kg) [2]: 3,600 mg/kg | Acute oral toxicity (LD50: mg/kg) [3]: 3,100 mg/kg | Acute oral toxicity (LD50: mg/kg) [4]: 3,800 mg/kg | Acute percutaneous toxicity [5]: <2,000 | Irritability Skin [6]: Non-irritating | Irritability Mucous membrane [7]: Non-irritating | Antigenicity [8]: None | Acute oral toxicity LD50 (mg/kg) [9]: <2,250 mg/kg | Acute oral toxicity LD50 (mg/kg) [10]: 5,620 mg/kg | TLm (96 hrs) [11]: 19 mg/L | TLm (96 hrs) [12]: 0.5 mg/L
